{"source": "patent US20210009624A1", "about": "“[18F] FMAU LABELING FOR PET IMAGING OF CANCER PATIENTS” (University of Southern California, priority 2018, published 2021)", "key": {"[1]": {"tested_on": "primary breast tumor as well as metastatic disease", "assay": "PET imaging of [18F]FMAU in breast cancer patients (Phase I)", "assay_type": "in vivo, human", "conditions": "FIG. 3", "source_text": "(§1) In addition to animal models, we also studied the [^18F]FMAU obtained through our synthesis method using the labeling kit in patients (Phase I) with known breast and prostate cancer. […] In view of the promising clinical Phase I data of [^18F]FMAU, it is clear that FMAU is a promising candidate for PET imaging of tumor cell proliferation, and may ultimately complement the role of FLT or other cell proliferation markers currently under development."}, "[2]": {"assay": "Adverse reactions in Phase I patients with breast and prostate cancer", "assay_type": "in vivo, human", "conditions": "all studied patients (Phase I, known breast and prostate cancer)", "source_text": "as §1"}, "[3]": {"assay": "Circulating metabolites in human blood after injection of [18F]FMAU", "assay_type": "in vivo", "conditions": "human blood at 1 hour post-injection", "source_text": "as §1"}}}
{"smiles": "Cc1cn([C@@H]2O[C@H](CO)C(O)C2[18F])c(=O)[nH]c1=O", "note": "(stereo partly drawn) [[^18F]FMAU, 2′-deoxy-2′-[^18F]fluoro-5-methyl-1-beta-D-arabinofuranosyl-uracil]", "values": [{"measurement": "primary breast tumor as well as metastatic disease uptake of [18F]FMAU (PET imaging)", "setting": "[1]", "result": "excellent"}, {"measurement": "adverse reactions", "setting": "[2]", "result": "No adverse reactions were observed"}, {"measurement": "circulating metabolites in human blood", "setting": "[3]", "result": "No major circulating metabolites were identified"}]}
